{"source": "patent US8192962B2", "about": "“Processes for detecting toxic substances” (Daikin Industries, Ltd., priority 2001, dated 2012)", "tested_on": "Mitochondria-located protein genes", "assay": "DNA chip mRNA expression in yeast, mitochondria-located protein genes (Table 2)", "type": "cell-based, Saccharomyces cerevisiae S288C", "settings": "cells incubated two hours with the chemical substance", "procedure,_shortened": "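Chemical exposure: 2 h, log-phase S. cerevisiae S288C, YPD, 25° C., dose set to inhibit growth without death. Profiling: mRNA labeled by reverse transcription with Cy3- or Cy5-dUTP, hybridized to whole-genome array. Output: fluorescence ratio against untreated culture.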", "data": [{"compound": "[Cl][Hg][Cl]", "note": "[(3), HgCl2]", "values": [{"measurement": "The level of expressed mRNA in the presence of chemical substance/The level of expressed mRNA in the absence of chemical substance", "setting": "yeast gene YAL039C", "result": 1.7}, {"measurement": "The level of expressed mRNA in the presence of chemical substance/The level of expressed mRNA in the absence of chemical substance", "setting": "yeast gene YBL022C", "result": 1.2}, {"measurement": "The level of expressed mRNA in the presence of chemical substance/The level of expressed mRNA in the absence of chemical substance", "setting": "yeast gene YBL030C", "result": 4.5}, {"measurement": "The level of expressed mRNA in the presence of chemical substance/The level of expressed mRNA in the absence of chemical substance", "setting": "yeast gene YBL038W", "result": 0.5}, {"measurement": "The level of expressed mRNA in the presence of chemical substance/The level of expressed mRNA in the absence of chemical substance", "setting": "yeast gene YBL099W", "result": 3.1}, {"measurement": "The level of expressed mRNA in the presence of chemical substance/The level of expressed mRNA in the absence of chemical substance", "setting": "yeast gene YBR003W", "result": 1.0}, {"measurement": "The level of expressed mRNA in the presence of chemical substance/The level of expressed mRNA in the absence of chemical substance", "setting": "yeast gene YBR044C", "result": 0.7}, {"measurement": "The level of expressed mRNA in the presence of chemical substance/The level of expressed mRNA in the absence of chemical substance", "setting": "yeast gene YBR091C", "result": 0.6}, {"measurement": "The level of expressed mRNA in the presence of chemical substance/The level of expressed mRNA in the absence of chemical substance", "setting": "yeast gene YBR122C", "result": 0.3}, {"measurement": "The level of expressed mRNA in the presence of chemical substance/The level of expressed mRNA in the absence of chemical substance", "setting": "yeast gene YBR185C", "result": 1.3}, {"measurement": "The level of expressed mRNA in the presence of chemical substance/The level of expressed mRNA in the absence of chemical substance", "setting": "yeast gene YBR221C", "result": 3.2}, {"measurement": "The level of expressed mRNA in the presence of chemical substance/The level of expressed mRNA in the absence of chemical substance", "setting": "yeast gene YBR251W", "result": 1.0}, {"measurement": "The level of expressed mRNA in the presence of chemical substance/The level of expressed mRNA in the absence of chemical substance", "setting": "yeast gene YBR282W", "result": 0.5}, {"measurement": "The level of expressed mRNA in the presence of chemical substance/The level of expressed mRNA in the absence of chemical substance", "setting": "yeast gene YCL057W", "result": 2.3}, {"measurement": "The level of expressed mRNA in the presence of chemical substance/The level of expressed mRNA in the absence of chemical substance", "setting": "yeast gene YCR046C", "result": 1.2}, {"measurement": "The level of expressed mRNA in the presence of chemical substance/The level of expressed mRNA in the absence of chemical substance", "setting": "yeast gene YCR083W", "result": 1.5}, {"measurement": "The level of expressed mRNA in the presence of chemical substance/The level of expressed mRNA in the absence of chemical substance", "setting": "yeast gene YDL067C", "result": 1.6}, {"measurement": "The level of expressed mRNA in the presence of chemical substance/The level of expressed mRNA in the absence of chemical substance", "setting": "yeast gene YDL181W", "result": 1.9}, {"measurement": "The level of expressed mRNA in the presence of chemical substance/The level of expressed mRNA in the absence of chemical substance", "setting": "yeast gene YDL198C", "result": 2.1}, {"measurement": "The level of expressed mRNA in the presence of chemical substance/The level of expressed mRNA in the absence of chemical substance", "setting": "yeast gene YDR079W", "result": 0.8}, {"measurement": "The level of expressed mRNA in the presence of chemical substance/The level of expressed mRNA in the absence of chemical substance", "setting": "yeast gene YDR178W", "result": 3.4}, {"measurement": "The level of expressed mRNA in the presence of chemical substance/The level of expressed mRNA in the absence of chemical substance", "setting": "yeast gene YDR231C", "result": 1.0}, {"measurement": "The level of expressed mRNA in the presence of chemical substance/The level of expressed mRNA in the absence of chemical substance", "setting": "yeast gene YDR258C", "result": 2.8}, {"measurement": "The level of expressed mRNA in the presence of chemical substance/The level of expressed mRNA in the absence of chemical substance", "setting": "yeast gene YDR298C", "result": 2.6}, {"measurement": "The level of expressed mRNA in the presence of chemical substance/The level of expressed mRNA in the absence of chemical substance", "setting": "yeast gene YDR347W", "result": 0.9}, {"measurement": "The level of expressed mRNA in the presence of chemical substance/The level of expressed mRNA in the absence of chemical substance", "setting": "yeast gene YDR377W", "result": 1.3}, {"measurement": "The level of expressed mRNA in the presence of chemical substance/The level of expressed mRNA in the absence of chemical substance", "setting": "yeast gene YDR529C", "result": 0.9}, {"measurement": "The level of expressed mRNA in the presence of chemical substance/The level of expressed mRNA in the absence of chemical substance", "setting": "yeast gene YEL024W", "result": 3.8}, {"measurement": "The level of expressed mRNA in the presence of chemical substance/The level of expressed mRNA in the absence of chemical substance", "setting": "yeast gene YEL039C", "result": 1.3}, {"measurement": "The level of expressed mRNA in the presence of chemical substance/The level of expressed mRNA in the absence of chemical substance", "setting": "yeast gene YER178W", "result": 3.6}, {"measurement": "The level of expressed mRNA in the presence of chemical substance/The level of expressed mRNA in the absence of chemical substance", "setting": "yeast gene YFL016C", "result": 1.6}, {"measurement": "The level of expressed mRNA in the presence of chemical substance/The level of expressed mRNA in the absence of chemical substance", "setting": "yeast gene YGL018C", "result": 1.8}, {"measurement": "The level of expressed mRNA in the presence of chemical substance/The level of expressed mRNA in the absence of chemical substance", "setting": "yeast gene YGL187C", "result": 1.6}, {"measurement": "The level of expressed mRNA in the presence of chemical substance/The level of expressed mRNA in the absence of chemical substance", "setting": "yeast gene YGL191W", "result": 1.4}, {"measurement": "The level of expressed mRNA in the presence of chemical substance/The level of expressed mRNA in the absence of chemical substance", "setting": "yeast gene YGR008C", "result": 1.7}, {"measurement": "The level of expressed mRNA in the presence of chemical substance/The level of expressed mRNA in the absence of chemical substance", "setting": "yeast gene YGR028W", "result": 1.0}, {"measurement": "The level of expressed mRNA in the presence of chemical substance/The level of expressed mRNA in the absence of chemical substance", "setting": "yeast gene YGR062C", "result": 0.7}, {"measurement": "The level of expressed mRNA in the presence of chemical substance/The level of expressed mRNA in the absence of chemical substance", "setting": "yeast gene YGR076C", "result": 0.6}, {"measurement": "The level of expressed mRNA in the presence of chemical substance/The level of expressed mRNA in the absence of chemical substance", "setting": "yeast gene YGR082W", "result": 2.2}, {"measurement": "The level of expressed mRNA in the presence of chemical substance/The level of expressed mRNA in the absence of chemical substance", "setting": "yeast gene YGR174C", "result": 0.6}, {"measurement": "The level of expressed mRNA in the presence of chemical substance/The level of expressed mRNA in the absence of chemical substance", "setting": "yeast gene YGR244C", "result": 1.6}, {"measurement": "The level of expressed mRNA in the presence of chemical substance/The level of expressed mRNA in the absence of chemical substance", "setting": "yeast gene YHR008C", "result": 4.8}, {"measurement": "The level of expressed mRNA in the presence of chemical substance/The level of expressed mRNA in the absence of chemical substance", "setting": "yeast gene YIL155C", "result": 1.4}, {"measurement": "The level of expressed mRNA in the presence of chemical substance/The level of expressed mRNA in the absence of chemical substance", "setting": "yeast gene YJL096W", "result": 0.8}, {"measurement": "The level of expressed mRNA in the presence of chemical substance/The level of expressed mRNA in the absence of chemical substance", "setting": "yeast gene YJL102W", "result": 0.4}, {"measurement": "The level of expressed mRNA in the presence of chemical substance/The level of expressed mRNA in the absence of chemical substance", "setting": "yeast gene YJL133W", "result": 2.0}, {"measurement": "The level of expressed mRNA in the presence of chemical substance/The level of expressed mRNA in the absence of chemical substance", "setting": "yeast gene YJL166W", "result": 1.6}, {"measurement": "The level of expressed mRNA in the presence of chemical substance/The level of expressed mRNA in the absence of chemical substance", "setting": "yeast gene YJL180C", "result": 1.1}, {"measurement": "The level of expressed mRNA in the presence of chemical substance/The level of expressed mRNA in the absence of chemical substance", "setting": "yeast gene YJR045C", "result": 3.9}, {"measurement": "The level of expressed mRNA in the presence of chemical substance/The level of expressed mRNA in the absence of chemical substance", "setting": "yeast gene YJR077C", "result": 2.0}]}]}
